The target in experiment [1] is T1, caspase-8 (Homo sapiens, UniProt Q14790). In words: Recombinant caspase-8 activity in vitro (Ac-IETD-AMC substrate). The experiment is classed as biochemical. Also noted: using active recombinant proteins of caspase-8 and caspase-3; purchased Enzo life sciences ALX-201-062. Particulars: recombinant caspase-8, Ac-IETD-AMC. From the text: FIG. 4. […] (A) Measures of caspase-8 activity (IETD-AMC). IETD-CHO treatment is used as positive control in the in vitro assay. The results are expressed as A.U./min and represent the mean of 3 independent experiments realized in duplicate (B) Measures of caspase-3 activity (DEVD-AMC). DEVD-CHO is used as positive control in the in vitro assay. The results are expressed as A.U./min and represent the mean of 3 independent experiments realized in duplicate. Human CSF-1 was purchased from Miltenyi (130-096-493). […] Mouse caspase-8 was from R&D Systems (AF705). HRP-conjugated rabbit anti-goat was purchased from Dako ([…]) and HRP-conjugated goat anti-rabbit was from Cell Signaling (5127). Active recombinant caspase-8 (ALX-201-062) and -3 (ALX-201-059) were from Enzo life sciences. […] Each assay (in triplicate) was performed with 10 μg of protein prepared from control or stimulated cells. […] Enzyme activities were expressed in arbitrary units (A.U.) per min and per mg of proteins. The same protocol was used with 0.25 units of active recombinant caspase-8 (Enzo, ALX-201-062) or -3 (Enzo, ALX-201-059) in each triplicate.
Target sequence in this assay (Q14790 217-374 limits assumed): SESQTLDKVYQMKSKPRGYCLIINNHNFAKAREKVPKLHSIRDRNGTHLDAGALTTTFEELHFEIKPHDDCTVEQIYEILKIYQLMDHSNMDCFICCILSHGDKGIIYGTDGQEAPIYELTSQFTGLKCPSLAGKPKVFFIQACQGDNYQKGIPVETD
Target sequence in this assay (Q14790 385-479 limits assumed): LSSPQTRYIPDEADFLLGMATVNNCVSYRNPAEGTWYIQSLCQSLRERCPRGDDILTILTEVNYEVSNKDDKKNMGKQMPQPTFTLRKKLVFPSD

In experiment [2] the target is T1, caspase-8. In words: Caspase-8 activity in cellulo in CSF-1-differentiating monocytes (flow cytometry, IETD). The experiment is classed as cell-based. The arrangement: endogenous in cells; host or cells: primary human peripheral blood monocytes exposed to CSF-1. Particulars: CSF-1 2 days. From the text:
(§1) FIG. 5. […] Caspases activities from 3 different healthy donors was examined by flow cytometry analysis. The results are expressed as percentage of IETD or DEVD positive cells and represent the mean±SD of 3 independent experiments performed in duplicate. n.s. denotes not statistically significant according to a paired student t test. *P<0.05, **P<0.01, ***P<0.001 according to a paired student t test (versus d2). Asterisks indicate cleavage fragments. Each panel is representative of at least 3 independent experiments.
(§2) To analyze the macrophagic differentiation of monocytes, the cells were washed with ice-cold phosphate buffered saline (PBS, Life Technologies, 14190169), incubated at 4° C. for 10 min in PBS/bovine serum albumin (BSA 0.5%, Dutscher, 871002) with anti-CD16, anti-CD71 and anti-CD163 or isotype controls (Miltenyi and BD Biosciences, catalog numbers were 130-113-396, 130-097-628 and 551374). […] Fluorescence was measured with a MACSQuant® Analyzer (Miltenyi, Paris, France). […] Fluorescence was measured with a MACSQuant® Analyzer (Miltenyi, Paris, France). […] Fluorescence, that indicate the internalization of particles, was measured with a MACSQuant® Analyzers (Miltenyi, France). Trypan blue solution was used to quench the fluorescence from particles that were not internalized. […]
(§3) After 2 days, caspase-8 activity was assessed by flow cytometry using Ac-IETD-FITC as substrate (data not shown).
Target sequence in this assay (Q14790 217-479): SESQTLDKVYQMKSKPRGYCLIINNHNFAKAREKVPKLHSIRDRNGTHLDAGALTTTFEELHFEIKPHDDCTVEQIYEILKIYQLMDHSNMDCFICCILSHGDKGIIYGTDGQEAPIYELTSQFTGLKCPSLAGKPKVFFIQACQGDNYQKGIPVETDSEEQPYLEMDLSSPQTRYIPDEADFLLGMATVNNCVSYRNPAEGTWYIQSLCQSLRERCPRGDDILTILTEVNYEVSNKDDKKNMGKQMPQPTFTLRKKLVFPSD
(A flow cytometer gives signals particle by particle.)

In the next experiment the test system is caspases 8, 3 and 7. In words: Western blot of caspase cleavage in monocytes. In kind it is cell-based, human. Particulars: for cleavage of effector caspases-3 and -7 at their specific differentiation cleavage site: monocytes treated 2 days with CSF-1; for cleavage of the zymogens of caspases 8, 3 and 7 in their active 17-20 kDa fragments: untreated monocytes without CSF-1, 24 h. The procedure:
Lysates were centrifuged at 20,000 g (15 min, 4° C.) and supernatants were supplemented with concentrated loading buffer (4× Laemmli buffer). Fifty micrograms of proteins were separated and transferred following standard protocols before analysis with the chemiluminescence detection kit (GE Healthcare, RPN2105).
A general note: In western blotting, separated proteins are transferred to a membrane and probed.

The next experiment addresses T2, caspase 3 (Homo sapiens, UniProt P42574).
T2 sequence (P42574 29-175 limits assumed): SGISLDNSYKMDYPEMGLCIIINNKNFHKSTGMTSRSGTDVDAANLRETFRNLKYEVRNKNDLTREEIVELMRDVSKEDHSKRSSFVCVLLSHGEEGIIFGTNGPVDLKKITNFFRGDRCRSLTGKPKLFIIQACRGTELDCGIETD
T2 sequence (P42574 176-277 limits assumed): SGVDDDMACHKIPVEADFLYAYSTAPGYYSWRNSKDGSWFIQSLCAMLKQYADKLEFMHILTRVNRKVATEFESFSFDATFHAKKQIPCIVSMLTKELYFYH
In words: Caspase-3 activity in cellulo in CSF-1-differentiating monocytes (flow cytometry, DEVD). The experiment is classed as cell-based. Particulars: identical conditions: Emricasan single dose, Q-VD-OPh 100 μM 2 times. The arrangement: endogenous in cells; host or cells: primary human peripheral blood monocytes (CD14-selected, healthy donors).
Excerpt: as §1, §2, §3

For orientation: IC50 means the midpoint of a concentration-inhibition curve. With `C[C@H](NC(=O)C(=O)Nc1ccccc1C(C)(C)C)C(=O)N[C@@H](CC(=O)O)C(=O)COc1c(F)c(F)cc(F)c1F` [Emricasan, (S)-3-((S)-2-(2-((2-(tert-Butyl)phenyl)amino)-2-oxoacetamido)propanamido)-4-oxo-5-(2,3,5,6-tetrafluorophenoxy)pentanoic acid], at caspase-8 [1], the half-inhibitory concentration (IC50) was found to be 12 nM and the “concentration that abrogated / fully inhibited caspase-8 activity” value turned out to be 0.2 µM. Further, the “single dose that abrogated caspase-8 activity in cellulo” value at caspase-8 [2] (flow cytometry) came out at 2 µM. Moreover, in the experiment with caspases 8, 3 and 7, the “cleavage of effector caspases-3 and -7 at their specific differentiation cleavage site” value is given as “impaired”; the “cleavage of the zymogens of caspases 8, 3 and 7 in their active 17-20 kDa fragments” value is “abrogated”. Further, the “effect on caspase-3 activity in cellulo” value at caspase 3 was “potent inhibition”.
Regarding `CC(C)[C@H](NC(=O)c1ccc2ccccc2n1)C(=O)N[C@@H](CC(=O)O)C(=O)COc1c(F)cccc1F` [Q-VD-OPh], at caspase-8 [1], the IC50 is approximately 1000 nM and the “concentration that abrogated / fully inhibited caspase-8 activity” value is 50 µM. In addition, on caspase-8 [2] (added twice at 100 μM), the “effect on caspase-8 activity in cellulo” value was “strong inhibition”. In addition, in the experiment with caspases 8, 3 and 7, the “cleavage of effector caspases-3 and -7 at their specific differentiation cleavage site” value is on record as “impaired”; the “cleavage of the zymogens of caspases 8, 3 and 7 in their active 17-20 kDa fragments” value is listed as “abrogated”. The “effect on caspase-3 activity in cellulo” value at caspase 3 is on record as “potent inhibition”.
